From ChEMBL document CHEMBL4507268 (2021)

Columns and labels:
[1] = target: T1, Serine/threonine-protein kinase DCLK2 (Homo sapiens) (UniProt Q8N568); conditions: Compound concentration 1000.0 nM
T1 sequence (whole entry): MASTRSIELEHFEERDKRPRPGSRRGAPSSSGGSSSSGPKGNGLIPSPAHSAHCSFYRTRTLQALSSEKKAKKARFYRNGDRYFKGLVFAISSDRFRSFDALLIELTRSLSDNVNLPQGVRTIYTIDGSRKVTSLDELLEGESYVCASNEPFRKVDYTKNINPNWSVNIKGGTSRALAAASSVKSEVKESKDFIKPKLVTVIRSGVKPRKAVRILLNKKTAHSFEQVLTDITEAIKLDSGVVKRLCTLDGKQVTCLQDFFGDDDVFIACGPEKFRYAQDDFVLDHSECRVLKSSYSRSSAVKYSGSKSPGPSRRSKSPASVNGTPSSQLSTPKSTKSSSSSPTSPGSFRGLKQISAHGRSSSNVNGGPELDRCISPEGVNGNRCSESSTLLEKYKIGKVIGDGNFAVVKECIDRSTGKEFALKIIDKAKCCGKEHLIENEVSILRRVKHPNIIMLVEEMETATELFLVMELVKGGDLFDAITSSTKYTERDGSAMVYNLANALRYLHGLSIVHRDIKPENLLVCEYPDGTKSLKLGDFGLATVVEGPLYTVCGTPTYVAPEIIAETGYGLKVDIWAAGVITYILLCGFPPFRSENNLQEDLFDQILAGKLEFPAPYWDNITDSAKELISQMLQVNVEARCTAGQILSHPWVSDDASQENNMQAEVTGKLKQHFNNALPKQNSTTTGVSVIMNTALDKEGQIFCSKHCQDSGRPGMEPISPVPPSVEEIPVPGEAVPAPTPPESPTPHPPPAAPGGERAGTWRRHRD

[2] = tested on: Epidermal growth factor receptor (Homo sapiens), P00533 [G719S]; conditions: Compound concentration 1000.0 nM
[3] = target: Mitogen-activated protein kinase kinase kinase kinase 2 (Homo sapiens) (UniProt Q12851); conditions: Compound concentration 1000.0 nM
Chain of Mitogen-activated protein kinase kinase kinase kinase 2 (Homo sapiens) (Q12851 whole entry): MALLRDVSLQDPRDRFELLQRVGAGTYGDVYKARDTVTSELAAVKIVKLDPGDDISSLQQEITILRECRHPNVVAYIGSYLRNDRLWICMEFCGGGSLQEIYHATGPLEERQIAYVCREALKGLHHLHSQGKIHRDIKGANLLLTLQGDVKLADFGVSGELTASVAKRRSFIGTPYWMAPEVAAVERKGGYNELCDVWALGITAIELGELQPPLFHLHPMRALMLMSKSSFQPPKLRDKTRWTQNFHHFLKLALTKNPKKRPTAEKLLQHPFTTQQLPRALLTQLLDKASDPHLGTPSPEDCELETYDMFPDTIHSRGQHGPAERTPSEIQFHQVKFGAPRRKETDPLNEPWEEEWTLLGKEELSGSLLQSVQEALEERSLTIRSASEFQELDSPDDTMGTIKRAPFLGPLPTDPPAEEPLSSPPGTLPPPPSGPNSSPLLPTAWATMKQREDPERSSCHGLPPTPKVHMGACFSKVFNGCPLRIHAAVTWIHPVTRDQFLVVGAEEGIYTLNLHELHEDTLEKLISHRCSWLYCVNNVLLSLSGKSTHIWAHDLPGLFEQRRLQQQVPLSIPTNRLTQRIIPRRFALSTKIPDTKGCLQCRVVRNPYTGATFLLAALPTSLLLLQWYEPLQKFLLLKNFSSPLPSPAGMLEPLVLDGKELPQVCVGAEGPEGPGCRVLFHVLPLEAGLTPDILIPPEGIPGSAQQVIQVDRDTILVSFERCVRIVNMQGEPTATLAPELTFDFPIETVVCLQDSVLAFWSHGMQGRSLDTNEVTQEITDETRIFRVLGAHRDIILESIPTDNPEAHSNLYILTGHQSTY

[4] = target: Serine/threonine-protein kinase PAK 1 (Homo sapiens) (UniProt Q13153); conditions: Compound concentration 1000.0 nM
Chain of Serine/threonine-protein kinase PAK 1 (Homo sapiens) (Q13153 whole entry): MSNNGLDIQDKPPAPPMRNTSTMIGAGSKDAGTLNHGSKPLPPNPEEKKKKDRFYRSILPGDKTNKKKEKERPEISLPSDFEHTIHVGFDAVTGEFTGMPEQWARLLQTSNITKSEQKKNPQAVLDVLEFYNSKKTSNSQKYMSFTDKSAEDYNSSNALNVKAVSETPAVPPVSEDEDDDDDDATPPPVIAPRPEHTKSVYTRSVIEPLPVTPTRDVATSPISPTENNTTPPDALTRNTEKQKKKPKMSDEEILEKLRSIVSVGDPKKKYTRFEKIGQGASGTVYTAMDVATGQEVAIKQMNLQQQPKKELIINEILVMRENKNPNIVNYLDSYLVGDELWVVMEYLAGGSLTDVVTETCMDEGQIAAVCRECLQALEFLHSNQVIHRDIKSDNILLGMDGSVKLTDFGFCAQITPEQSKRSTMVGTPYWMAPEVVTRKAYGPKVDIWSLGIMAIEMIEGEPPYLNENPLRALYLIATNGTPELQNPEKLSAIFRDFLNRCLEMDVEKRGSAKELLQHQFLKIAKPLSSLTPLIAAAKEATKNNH

[5] = target: Protein kinase C delta type (Homo sapiens) (UniProt Q05655); conditions: Compound concentration 1000.0 nM
Chain of Protein kinase C delta type (Homo sapiens) (Q05655 whole entry, looked up): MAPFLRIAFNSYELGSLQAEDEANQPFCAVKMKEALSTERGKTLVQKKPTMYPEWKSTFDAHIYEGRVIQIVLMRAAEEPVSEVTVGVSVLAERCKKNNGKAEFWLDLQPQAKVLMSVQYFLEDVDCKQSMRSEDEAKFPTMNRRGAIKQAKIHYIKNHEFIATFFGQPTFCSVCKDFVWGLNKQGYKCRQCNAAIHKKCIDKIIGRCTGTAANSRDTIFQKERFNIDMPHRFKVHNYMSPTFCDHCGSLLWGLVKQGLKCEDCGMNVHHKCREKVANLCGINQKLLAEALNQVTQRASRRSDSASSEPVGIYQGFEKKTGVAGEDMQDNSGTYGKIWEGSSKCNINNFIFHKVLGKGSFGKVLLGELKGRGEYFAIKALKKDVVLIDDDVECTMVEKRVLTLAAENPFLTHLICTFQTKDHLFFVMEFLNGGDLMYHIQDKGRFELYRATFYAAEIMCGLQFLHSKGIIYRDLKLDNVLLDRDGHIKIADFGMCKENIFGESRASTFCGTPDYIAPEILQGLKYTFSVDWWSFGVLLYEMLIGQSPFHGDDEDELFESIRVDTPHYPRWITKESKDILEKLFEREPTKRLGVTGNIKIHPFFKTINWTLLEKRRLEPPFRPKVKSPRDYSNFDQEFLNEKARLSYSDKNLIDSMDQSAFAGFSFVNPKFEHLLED

[6] = target: Proto-oncogene tyrosine-protein kinase Src (Homo sapiens) (UniProt P12931); conditions: Compound concentration 1000.0 nM
Chain of Proto-oncogene tyrosine-protein kinase Src (Homo sapiens) (P12931 2-536 limits assumed): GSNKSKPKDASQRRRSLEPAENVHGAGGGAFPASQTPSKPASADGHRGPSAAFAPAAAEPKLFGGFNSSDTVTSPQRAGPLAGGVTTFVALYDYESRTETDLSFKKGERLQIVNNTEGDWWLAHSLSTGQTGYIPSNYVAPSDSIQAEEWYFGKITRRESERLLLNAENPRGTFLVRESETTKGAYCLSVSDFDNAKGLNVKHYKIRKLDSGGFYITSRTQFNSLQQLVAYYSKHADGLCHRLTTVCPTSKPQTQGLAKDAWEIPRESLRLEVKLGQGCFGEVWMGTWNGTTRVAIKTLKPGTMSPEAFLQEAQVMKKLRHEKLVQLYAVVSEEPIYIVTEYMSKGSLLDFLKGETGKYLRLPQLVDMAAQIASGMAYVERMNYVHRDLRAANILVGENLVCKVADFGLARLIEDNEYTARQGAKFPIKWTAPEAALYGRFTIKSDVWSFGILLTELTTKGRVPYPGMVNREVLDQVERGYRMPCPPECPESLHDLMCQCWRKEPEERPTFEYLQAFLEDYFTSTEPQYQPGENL

[7] = target: T2, Serine/threonine-protein kinase TBK1 (Homo sapiens) (UniProt Q9UHD2); conditions: Compound concentration 1000.0 nM
T2 sequence (whole entry): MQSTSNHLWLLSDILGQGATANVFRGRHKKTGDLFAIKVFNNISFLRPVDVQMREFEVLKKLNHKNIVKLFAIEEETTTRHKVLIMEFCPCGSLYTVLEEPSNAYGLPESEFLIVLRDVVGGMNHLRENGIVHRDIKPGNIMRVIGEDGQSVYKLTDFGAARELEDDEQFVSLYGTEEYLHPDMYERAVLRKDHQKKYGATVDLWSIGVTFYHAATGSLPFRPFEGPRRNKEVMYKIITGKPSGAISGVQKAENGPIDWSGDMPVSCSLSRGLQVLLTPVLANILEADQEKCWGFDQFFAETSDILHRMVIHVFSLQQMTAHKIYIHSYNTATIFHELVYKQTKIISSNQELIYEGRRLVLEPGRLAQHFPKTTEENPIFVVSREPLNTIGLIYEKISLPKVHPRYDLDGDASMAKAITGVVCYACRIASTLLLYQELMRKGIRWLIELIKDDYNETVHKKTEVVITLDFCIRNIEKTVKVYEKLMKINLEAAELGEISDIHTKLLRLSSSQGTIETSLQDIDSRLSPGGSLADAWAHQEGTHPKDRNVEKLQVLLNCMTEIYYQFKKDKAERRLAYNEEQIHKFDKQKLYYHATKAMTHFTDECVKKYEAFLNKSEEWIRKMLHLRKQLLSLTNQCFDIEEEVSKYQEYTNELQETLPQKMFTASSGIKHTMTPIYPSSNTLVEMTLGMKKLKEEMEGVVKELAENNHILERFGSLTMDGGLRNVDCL

[8] = target: T3, Tyrosine-protein kinase receptor TYRO3 (Homo sapiens) (UniProt Q06418); conditions: Compound concentration 1000.0 nM
T3 sequence (whole entry): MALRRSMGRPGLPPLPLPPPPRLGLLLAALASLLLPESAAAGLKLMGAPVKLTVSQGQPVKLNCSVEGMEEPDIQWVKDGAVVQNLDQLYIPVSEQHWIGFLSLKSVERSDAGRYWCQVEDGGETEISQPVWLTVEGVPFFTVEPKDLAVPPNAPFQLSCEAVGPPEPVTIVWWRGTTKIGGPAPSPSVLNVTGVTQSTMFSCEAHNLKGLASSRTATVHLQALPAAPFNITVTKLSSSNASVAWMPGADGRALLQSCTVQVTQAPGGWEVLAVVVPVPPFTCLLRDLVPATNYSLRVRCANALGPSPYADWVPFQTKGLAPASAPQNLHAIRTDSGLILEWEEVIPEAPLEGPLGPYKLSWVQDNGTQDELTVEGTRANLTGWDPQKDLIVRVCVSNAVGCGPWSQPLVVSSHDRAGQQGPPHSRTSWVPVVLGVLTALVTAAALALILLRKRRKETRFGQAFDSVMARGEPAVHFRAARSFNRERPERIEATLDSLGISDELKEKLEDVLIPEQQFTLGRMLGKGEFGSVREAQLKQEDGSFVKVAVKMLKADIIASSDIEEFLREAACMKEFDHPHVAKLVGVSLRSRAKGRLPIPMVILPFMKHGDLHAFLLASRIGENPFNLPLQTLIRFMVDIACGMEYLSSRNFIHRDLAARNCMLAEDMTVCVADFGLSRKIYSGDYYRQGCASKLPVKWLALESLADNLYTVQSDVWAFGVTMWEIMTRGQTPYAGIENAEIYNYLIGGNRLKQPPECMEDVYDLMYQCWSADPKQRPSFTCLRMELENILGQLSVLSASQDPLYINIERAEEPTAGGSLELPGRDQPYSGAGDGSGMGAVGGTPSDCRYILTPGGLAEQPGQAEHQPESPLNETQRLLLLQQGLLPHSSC

[9] = target: 5-hydroxytryptamine receptor 1D (Homo sapiens) (UniProt P28221); conditions: Compound concentration 10.0 uM
Chain of 5-hydroxytryptamine receptor 1D (Homo sapiens) (P28221 whole entry): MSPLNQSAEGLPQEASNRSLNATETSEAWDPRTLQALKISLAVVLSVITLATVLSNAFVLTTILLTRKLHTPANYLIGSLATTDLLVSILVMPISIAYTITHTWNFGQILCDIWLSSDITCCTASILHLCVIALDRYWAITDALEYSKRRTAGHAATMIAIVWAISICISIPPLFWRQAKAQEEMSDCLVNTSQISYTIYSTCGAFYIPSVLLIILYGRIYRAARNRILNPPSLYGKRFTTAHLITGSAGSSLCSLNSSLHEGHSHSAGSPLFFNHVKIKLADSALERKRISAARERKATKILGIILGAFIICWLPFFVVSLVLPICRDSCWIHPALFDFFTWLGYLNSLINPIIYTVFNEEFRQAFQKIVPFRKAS

Cc1nc(C2CCN(C(=O)c3ccc(OC(F)(F)F)cc3N)CC2)c2ncc(N3CCN(C)CC3)cc2n1 [BAY-693]
inactive: residual activity [1] 100% | residual activity [2] 100% | residual activity [3] 80% | residual activity [4] 100% | residual activity [5] 100% | residual activity [6] 99% | residual activity [7] 100% | residual activity [8] 100% | inhibition [9] -2.17%

CN1CCN(c2cnc3c(C4CCN(C(=O)c5ccc(OC(F)(F)F)cc5N)CC4)ncnc3c2)CC1 [BAY-885]
inactive: residual activity [1] 100% | residual activity [2] 100% | residual activity [3] 82% | residual activity [4] 93% | residual activity [5] 100% | residual activity [6] 100% | residual activity [7] 61% | residual activity [8] 100% | inhibition [9] 16%
